Columns and labels:
HCT116-MTAP-KO = assay: Cell killing in HCT116 isogenic pair (Cell Titer-Glo viability), MTAP knock-out cells; type: cell-based, human; details: Homo sapiens, HCT-116, 144 h, 6 days incubation, 0-10 μM, * = more than 50% viability inhibition at tested concentration without a full curve
Summary of the method: (§1)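 HCT116 MTAP-knockout or mock-knockout (MTAP wildtype) cells in RPMI 1640 with 10% FBS were seeded overnight, then exposed to test compound at 0–10 μM final for 6 days at 37° C. Viability was measured by CellTiter-Glo luminescence and IC50 was fitted.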

HCT116-mock-RNA-KO = assay: Cell killing in HCT116 isogenic pair (Cell Titer-Glo viability), mock knock-out cells with MTAP wildtype genotype; type: cell-based, human; details: Homo sapiens, HCT-116, 144 h, 6 days incubation, 0-10 μM
Summary of the method: as §1

Structure (SMILES) | IC50 (HCT116-MTAP-KO) [nM] | IC50 (HCT116-mock-RNA-KO) [nM]
CN(C(=O)c1[nH]c2c3c(c(N)nc2c1C#N)COC3)[C@@H]1COCc2cc(C(F)(F)F)ccc21 [Example 92, (S)-5-amino-3-cyano-N-methyl-N-(7-(trifluoromethyl)isochroman-4-yl)-6,8-dihydro-1H-furo[3,4-d]pyrrolo[3,2-b]pyridine-2-carboxamide] | 49 | 2050
CC[C@@H]1OC[C@@H](N(C)C(=O)c2cc3nc(N)c4c(c3[nH]2)COC4)c2ccc(C(F)(F)F)cc21 [Example 93, 5-amino-N-((1S,4S)-1-ethyl-7-(trifluoromethyl)isochroman-4-yl)-N-methyl-6,8-dihydro-1H-furo[3,4-d]pyrrolo[3,2-b]pyridine-2-carboxamide] | 165 | > 10000
CC[C@H]1OC[C@@H](N(C)C(=O)c2cc3nc(N)c4c(c3[nH]2)COC4)c2ccc(C(F)(F)F)cc21 [Example 94, 5-amino-N-((1R,4S)-1-ethyl-7-(trifluoromethyl)isochroman-4-yl)-N-methyl-6,8-dihydro-1H-furo[3,4-d]pyrrolo[3,2-b]pyridine-2-carboxamide] | 3.8 | 578
CN(C(=O)c1cc2nc(N)c3c(c2[nH]1)COC3)[C@@H]1COCc2cc(C3CC3)cc(F)c21 [Example 95, (S)-5-amino-N-(7-cyclopropyl-5-fluoroisochroman-4-yl)-N-methyl-6,8-dihydro-1H-furo[3,4-d]pyrrolo[3,2-b]pyridine-2-carboxamide] | 18 | 1780
CN(C(=O)c1cc2nc(N)c3c(c2[nH]1)COC3)[C@@H]1COCc2cc(Br)cc(F)c21 [Example 96, (S)-5-amino-N-(7-bromo-5-fluoroisochroman-4-yl)-N-methyl-6,8-dihydro-1H-furo[3,4-d]pyrrolo[3,2-b]pyridine-2-carboxamide] | 7.2 | 1930
CN(C(=O)c1cc2nc(N)c3c(c2[nH]1)COC3)[C@@H]1COCc2cc(C#N)cc(F)c21 [Example 97, (S)-5-amino-N-(7-cyano-5-fluoroisochroman-4-yl)-N-methyl-6,8-dihydro-1H-furo[3,4-d]pyrrolo[3,2-b]pyridine-2-carboxamide] | 17 | 2890
CC(=O)N1Cc2cc(C(F)(F)F)ccc2[C@H](N(C)C(=O)c2cc3nc(N)c4c(c3[nH]2)COC4)C1 [Example 98, (S)—N-(2-acetyl-7-(trifluoromethyl)-1,2,3,4-tetrahydroisoquinolin-4-yl)-5-amino-N-methyl-6,8-dihydro-1H-furo[3,4-d]pyrrolo[3,2-b]pyridine-2-carboxamide] | 11 | 1860
CC(=O)N1Cc2cc(C(F)(F)F)ccc2[C@@H](N(C)C(=O)c2cc3nc(N)c4c(c3[nH]2)COC4)C1 [Example 99, (R)—N-(2-acetyl-7-(trifluoromethyl)-1,2,3,4-tetrahydroisoquinolin-4-yl)-5-amino-N-methyl-6,8-dihydro-1H-furo[3,4-d]pyrrolo[3,2-b]pyridine-2-carboxamide] | 722 | > 10000
CN(C(=O)c1cc2nc(N)c3c(c2[nH]1)COC3)[C@@H]1CN(C(=O)C2CC2)Cc2cc(C(F)(F)F)ccc21 [Example 100, (S)-5-amino-N-(2-(cyclopropanecarbonyl)-7-(trifluoromethyl)-1,2,3,4-tetrahydroisoquinolin-4-yl)-N-methyl-6,8-dihydro-1H-furo[3,4-d]pyrrolo[3,2-b]pyridine-2-carboxamide] | 1.4 | 136
CN(C(=O)c1cc2nc(N)c3c(c2[nH]1)COC3)[C@H]1CN(C(=O)C2CC2)Cc2cc(C(F)(F)F)ccc21 [Example 101, (R)-5-amino-N-(2-(cyclopropanecarbonyl)-7-(trifluoromethyl)-1,2,3,4-tetrahydroisoquinolin-4-yl)-N-methyl-6,8-dihydro-1H-furo[3,4-d]pyrrolo[3,2-b]pyridine-2-carboxamide] | 339 | 2090
CC(C)C(=O)N1Cc2cc(C(F)(F)F)ccc2[C@H](N(C)C(=O)c2cc3nc(N)c4c(c3[nH]2)COC4)C1 [Example 102, (S)-5-amino-N-(2-isobutyryl-7-(trifluoromethyl)-1,2,3,4-tetrahydroisoquinolin-4-yl)-N-methyl-6,8-dihydro-1H-furo[3,4-d]pyrrolo[3,2-b]pyridine-2-carboxamide] | 1.1 | 77
CC(C)C(=O)N1Cc2cc(C(F)(F)F)ccc2[C@@H](N(C)C(=O)c2cc3nc(N)c4c(c3[nH]2)COC4)C1 [Example 103, (R)-5-amino-N-(2-isobutyryl-7-(trifluoromethyl)-1,2,3,4-tetrahydroisoquinolin-4-yl)-N-methyl-6,8-dihydro-1H-furo[3,4-d]pyrrolo[3,2-b]pyridine-2-carboxamide] | 272 | 2450
CN(C(=O)c1cc2nc(N)c3c(c2[nH]1)COC3)[C@@H]1COCc2cc(-c3cccnc3)ccc21 [Example 104, (S)-5-amino-N-methyl-N-(7-(pyridin-3-yl)isochroman-4-yl)-6,8-dihydro-1H-furo[3,4-d]pyrrolo[3,2-b]pyridine-2-carboxamide] | 18 | 2730
CCC(CC)N(Cc1c(F)cc(C2CC2)cc1F)C(=O)c1cc2nc(N)c3c(c2[nH]1)COC3 [Example 105, 5-amino-N-(4-cyclopropyl-2,6-difluorobenzyl)-N-(pentan-3-yl)-6,8-dihydro-1H-furo[3,4-d]pyrrolo[3,2-b]pyridine-2-carboxamide] | 13 | 930
CC(C)N(Cc1ccc(C2CC2)cn1)C(=O)c1cc2nc(N)c3c(c2[nH]1)CO[C@@H]3C [Example 106, (R)-5-amino-N-((5-cyclopropylpyridin-2-yl)methyl)-N-isopropyl-6-methyl-6,8-dihydro-1H-furo[3,4-d]pyrrolo[3,2-b]pyridine-2-carboxamide] | 11 | 2630
CC[C@@H](C)N(Cc1ccc(C2CCC2)cn1)C(=O)c1cc2nc(N)c3c(c2[nH]1)COC3 [Example 107, (R)-5-amino-N-(sec-butyl)-N-((5-cyclobutylpyridin-2-yl)methyl)-6,8-dihydro-1H-furo[3,4-d]pyrrolo[3,2-b]pyridine-2-carboxamide] | 20 | 1090
CC[C@@H](C)N(Cc1ccc(C2CC2)c(C)n1)C(=O)c1cc2nc(N)c3c(c2[nH]1)COC3 [Example 108, (R)-5-amino-N-(sec-butyl)-N-((5-cyclopropyl-6-methylpyridin-2-yl)methyl)-6,8-dihydro-1H-furo[3,4-d]pyrrolo[3,2-b]pyridine-2-carboxamide] | 31 | 3420
CCC(CC)N(Cc1cc(C)c(C2CC2)cn1)C(=O)c1cc2nc(N)c3c(c2[nH]1)COC3 [Example 109, 5-amino-N-((5-cyclopropyl-4-methylpyridin-2-yl)methyl)-N-(pentan-3-yl)-6,8-dihydro-1H-furo[3,4-d]pyrrolo[3,2-b]pyridine-2-carboxamide] | 24 | 1790
CCN(C(=O)c1cc2nc(N)c3c(c2[nH]1)COC3)[C@H](C)c1ncc(C(F)(F)F)cc1F [Example 110, (R)-5-amino-N-ethyl-N-(1-(3-fluoro-5-(trifluoromethyl)pyridin-2-yl)ethyl)-6,8-dihydro-1H-furo[3,4-d]pyrrolo[3,2-b]pyridine-2-carboxamide] | 12 | 2490
CCN(C(=O)c1cc2nc(N)c3c(c2[nH]1)COC3)[C@@H](C)c1ncc(C(F)(F)F)cc1F [Example 111, (S)-5-amino-N-ethyl-N-(1-(3-fluoro-5-(trifluoromethyl)pyridin-2-yl)ethyl)-6,8-dihydro-1H-furo[3,4-d]pyrrolo[3,2-b]pyridine-2-carboxamide] | 2200 | > 10000
CCN(C(=O)c1cc2nc(N)c3c(c2[nH]1)COC3)[C@H](C)c1ccc(C2CC2)cn1 [Example 112, (R)-5-amino-N-(1-(5-cyclopropylpyridin-2-yl)ethyl)-N-ethyl-6,8-dihydro-1H-furo[3,4-d]pyrrolo[3,2-b]pyridine-2-carboxamide] | 59 | > 10000
CCN(C(=O)c1cc2nc(N)c3c(c2[nH]1)COC3)[C@@H](C)c1ccc(C2CC2)cn1 [Example 113, (S)-5-amino-N-(1-(5-cyclopropylpyridin-2-yl)ethyl)-N-ethyl-6,8-dihydro-1H-furo[3,4-d]pyrrolo[3,2-b]pyridine-2-carboxamide] | 1610 | > 10000
CCN(C(=O)c1cc2nc(N)c3c(c2[nH]1)COC3)[C@@H](C)c1ccc(C(F)(F)F)cn1 [Example 114, (S)-5-amino-N-ethyl-N-(1-(5-(trifluoromethyl)pyridin-2-yl)ethyl)-6,8-dihydro-1H-furo[3,4-d]pyrrolo[3,2-b]pyridine-2-carboxamide] | 3630 | > 10000
CCN(C(=O)c1cc2nc(N)c3c(c2[nH]1)COC3)[C@H](C)c1ccc(C(F)(F)F)cn1 [Example 115, (R)-5-amino-N-ethyl-N-(1-(5-(trifluoromethyl)pyridin-2-yl)ethyl)-6,8-dihydro-1H-furo[3,4-d]pyrrolo[3,2-b]pyridine-2-carboxamide] | 43 | 6820
CCC(CC)N(Cc1c(F)cc(C(F)(F)F)cc1F)C(=O)c1cc2nc(N)c3c(c2[nH]1)CO[C@@H]3C [Example 116, (R)-5-amino-N-(2,6-difluoro-4-(trifluoromethyl)benzyl)-6-methyl-N-(pentan-3-yl)-6,8-dihydro-1H-furo[3,4-d]pyrrolo[3,2-b]pyridine-2-carboxamide] | 6.9 | 269
CCC(CC)N(Cc1ncc(N2CCOCC2)cc1F)C(=O)c1cc2nc(N)c3c(c2[nH]1)COC3 [Example 117, 5-amino-N-((3-fluoro-5-morpholinopyridin-2-yl)methyl)-N-(pentan-3-yl)-6,8-dihydro-1H-furo[3,4-d]pyrrolo[3,2-b]pyridine-2-carboxamide] | 6.5 | 609

Source: patent publication US20240368177A1, “5-AMINO-6,8-DIHYDRO-1H-FURO[3,4-d]PYRROLO[3,2-b]PYRIDINE-2-CARBOXAMIDE DERIVATIVES AS MTA-COOPERATIVE INHIBITORS OF PRMT5” (BeiGene Switzerland GmbH, priority 2023, published 2024)
